Test results taken from US9492508B2, “Parathyroid hormone analogs and uses thereof” (The General Hospital Corporation, priority 2010, dated 2016).
Ends that are not written are not given here.

Assays:
[1] = molecular target: T1, human PTHR1 (R0) (Homo sapiens, UniProt Q03431); assay: Competition binding, R0 conformation of human PTHR1 (COS-7 membranes, 125I-PTH(1-34) tracer, GTPγS); details: for R0 binding at human PTH receptor as compared to PTH(1-34): FIG. 5A
T1 construct: expressed in transfected cells; host or cells: COS-7 cells (membranes)
T1 sequence (Q03431 27-593): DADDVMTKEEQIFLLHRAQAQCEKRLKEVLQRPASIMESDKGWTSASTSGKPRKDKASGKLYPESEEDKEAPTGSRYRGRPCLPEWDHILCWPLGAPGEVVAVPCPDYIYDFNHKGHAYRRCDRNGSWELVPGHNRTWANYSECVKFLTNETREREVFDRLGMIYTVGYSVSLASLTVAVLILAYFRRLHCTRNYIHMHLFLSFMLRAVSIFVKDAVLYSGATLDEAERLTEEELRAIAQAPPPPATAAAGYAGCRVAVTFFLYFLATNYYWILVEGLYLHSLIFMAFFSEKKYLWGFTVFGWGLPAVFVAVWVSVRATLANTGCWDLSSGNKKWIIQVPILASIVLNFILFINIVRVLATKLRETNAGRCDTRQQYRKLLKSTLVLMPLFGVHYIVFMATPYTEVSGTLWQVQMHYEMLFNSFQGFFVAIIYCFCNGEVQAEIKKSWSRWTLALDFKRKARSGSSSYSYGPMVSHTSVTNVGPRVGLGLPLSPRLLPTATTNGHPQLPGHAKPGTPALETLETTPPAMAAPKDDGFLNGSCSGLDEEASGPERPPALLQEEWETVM
Experimental: (§1) Briefly, the R^0 form of the receptor can be favored by addition of the non-hydrolyzable nucleotide analog GTPγS. The RG form can be favored, for example, by co-transfection of cells with a negative dominant Gαs subunit. […] Data are means of four experiments, each performed in duplicate. Curves were fit to the data using Graph-Pad Prism 4.0.
Here, competition binding assays for the R^0 and RG PTHR1 conformation were performed in membranes prepared from transfected COS-7 cells, as described by Dean et al., Mol Endocrinol 22:156-66, 2008. Data are means of three experiments, each performed in duplicate. Curves were fit to the data using Graph-Pad Prism 4.0.

[2] = molecular target: T2, rat PTHR1 (R0) (Rattus norvegicus, UniProt P25961); assay: Competition binding, R0 conformation of rat PTHR1; details: for IC50: R0 conformation, mean of 4 experiments, read-out: Binding rat PTHR1 IC50 (Log M) R0 (converted)
T2 sequence (P25961 27-591): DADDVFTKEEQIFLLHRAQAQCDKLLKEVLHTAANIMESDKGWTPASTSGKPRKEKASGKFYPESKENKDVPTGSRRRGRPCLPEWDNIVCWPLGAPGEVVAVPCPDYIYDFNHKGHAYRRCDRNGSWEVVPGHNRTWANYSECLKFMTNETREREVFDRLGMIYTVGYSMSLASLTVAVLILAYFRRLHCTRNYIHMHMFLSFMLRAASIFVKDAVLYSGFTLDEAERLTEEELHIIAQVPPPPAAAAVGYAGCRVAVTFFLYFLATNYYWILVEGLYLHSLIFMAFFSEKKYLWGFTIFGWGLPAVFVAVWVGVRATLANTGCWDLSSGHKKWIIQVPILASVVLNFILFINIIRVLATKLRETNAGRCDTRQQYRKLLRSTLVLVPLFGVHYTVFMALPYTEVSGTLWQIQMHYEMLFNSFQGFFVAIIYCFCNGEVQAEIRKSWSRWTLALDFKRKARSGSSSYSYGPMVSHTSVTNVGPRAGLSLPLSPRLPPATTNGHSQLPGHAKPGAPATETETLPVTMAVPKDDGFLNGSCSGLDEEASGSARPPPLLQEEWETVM
Description: as §1

[3] = test system: MC3T3-E1 cells; assay: cAMP RIA in intact MC3T3-E1 cells; format: cell-based, mouse; details: 30 min, room temperature, IBMX; for cAMP MC3T3-E1 cells EC50 (Log M): 6 experiments
Method in brief: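 Intact mouse pre-osteoblastic MC3T3-E1 cells were stimulated with polypeptide. cAMP in HCl lysates was measured by radioimmunoassay. Values are means of six duplicate experiments with fitted curves.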

[4] = Blood Ca++ responses in mice; format: in vivo, mice (C57 BL/6); details: 5 nmol/kg s.c., 4, 6, 8 and 24 hours
Experimental: Blood Ca^++ responses in mice were also assayed. Mice (C57 BL/6) were injected subcutaneously with either vehicle or the indicated ligand to give a final dose of 5 nmol/kg body weight, and blood was withdrawn via the tail at times after injection and assessed for Ca^++ concentration using a Bayer Rapid Lab model 348 blood analyzer. […] A similar experiment using 10 nmol/kg by intravenous injection was also conducted with similar results (FIGS. 8C and 8D).

[5] = Hypercalcemic assay in cynomolgus monkeys (serum and urinary calcium and phosphate); format: in vivo, cynomolgus monkey; details: for serum calcium: 0.25 nmol/kg intravenous, FIG. 12A; for serum calcium, subcutaneous two doses: 2.5 or 10 nmol/kg subcutaneous, FIG. 15A
Experimental: The effects of the SP-PTH (SEQ ID NO:11) and SP-PTH-AAK (SEQ ID NO:4) (“SP-AAK”) on serum and urinary calcium and phosphate levels were tested in cynomolgus monkeys. Briefly, three- or four-year-old, male cynomolgus monkeys (HAMRI Co., Ltd., Ibaraki, Japan) were measured for their body weight. Blood was collected into tubes. Monkeys received intravenous or subcutaneous administration of each polypeptide at a dose of 0.3 ml/kg. Polypeptide concentrations in stock solution were adjusted by dilution with 25 mmol/L phosphate-citrate buffer/100 mmol/L NaCl/0.05% Tween 80 (pH.5.0) (PC-buffer). All polypeptides were allowed to stand on ice immediately before administration. Polypeptides were administered to groups of three monkeys each respectively. At 1, 2, 4, and 8 hours after administration, blood was collected by saphenous vein to monitor the time course of calcium and phosphorus levels (FIG. 11A).
Similar experiments were performed using subcutaneous injection of the polypeptides using two different doses (2.5 nmol/kg or 10 nmol/kg; FIG. 14). […] Reductions in serum inorganic phosphate were also observed (FIGS. 15B and 15C). […] Urine calcium and phosphate data were also collected. Urine was collected in 24-hour intervals prior to injection (T=0) and at times thereafter and assessed for Ca (FIGS. 15E and 15G), Pi (FIGS. 15F and 15H) and creatinine; [Ca] and [PI] are expressed as ratios to [creatinine]. FIGS. 15G and 15H present the change from the pre-injection values. Data are means±s.e.m.; n=3/group.

| R0 binding at human PTH receptor as compared to PTH(1-34) [1] | IC50 ([1]; R0 conformation, mean of 3 experiments, read-out: Binding human PTHR1 IC50 (Log M) R0 (converted)) [nM] | IC50 [2] [nM] | EC50 [3] [nM] | cAMP MC3T3-E1 cells EC50 (Log M) [3] [Log M] | binding to R0 form of rat PTHR1, comparison in words ([2]; FIG. 1A) | EC50 ([2]; FIG. 1A, read-out: log EC50, binding to the R0 form of the rat PTH receptor (converted)) [nM] | Substance | cAMP MC3T3-E1 cells Emax (pmole/well) [3] [pmole/well] | blood calcium levels at later time points vs PTH(1-34) or vehicle [4] | serum calcium [5] | serum calcium, subcutaneous two doses [5] | stronger binding to the R0 form of the rat PTH receptor as compared to PTH(1-34) ([2]; FIG. 1A) |
| --- | --- | --- | --- | --- | --- | --- | --- | --- | --- | --- | --- | --- |
| enhanced R^0 binding | 1.38 | 1.45 | 0.044 | −10.4 ± 0.1 |  |  | AVAEIQLMHQRAKWIQDLRRRFFLHHLIAEIHTAEI-OH [SP-PTH, [Ala^1,3,12,Gln^10,Arg^11,Trp^14]PTH(1-14)/PTHrP(15-36)] | 60.6 ± 12.4 | increased | increased serum calcium | increases in serum calcium were observed in a dose dependent manner |  |
| enhanced R^0 binding |  | 0.209 | 0.0063 | −11.2 ± 0.2 | strongest binding | 0.2 | AVAEIQLMHQRAKWIQDARRRAFLHKLIAEIHTAEI-OH [SP-PTH-AAK, [Ala^1,3,12,18,22,Gln^10,Arg^11,Trp^14,Lys^26]PTH(1-14)/PTHrP(15-36)] | 62.3 ± 13.6 | increased | increased serum calcium | increases in serum calcium were observed in a dose dependent manner | greater than two orders of magnitude increase in binding |
